Test results published in patent US20070128217A1 (priority 2003, published 2007).

Tests used:
[1] = test system: antibodies in sera from SARS patients (sera 1a, 1b, 2, 6, 37, 62, London, SARS-yellow, SARS-green); type: binding, human; parameters: Binding of serum 6 to linear peptides of protein X1 of SARS-CoV Urbani / Binding of serum 37 to linear peptides of protein X1 of SARS-CoV Urbani / Binding of serum 6 to looped/cyclic peptide (PEPSCAN-ELISA) / Binding of serum 37 to looped/cyclic peptide (PEPSCAN-ELISA) / Binding of serum 37 to looped/cyclic peptides of protein X1 of SARS-CoV Urbani / Binding of serum 6 to linear peptides of protein X2 / Binding of serum 37 to linear peptides of protein X2 / Binding of serum 37 to looped/cyclic peptides of protein X2 of SARS-CoV Urbani / Binding of serum 6 to linear peptides of protein M of SARS-CoV Urbani / Binding of serum 37 to linear peptides of protein M of SARS-CoV Urbani / Binding of serum 6 to looped/cyclic peptides of protein M of SARS-CoV Urbani / Binding of serum 37 to looped/cyclic peptides of protein M of SARS-CoV Urbani / Binding of serum 6 to linear peptides of protein X3 of SARS-CoV Urbani / Binding of serum 37 to linear peptides of protein X3 of SARS-CoV Urbani / Binding of serum 37 to looped/cyclic peptides of protein X3 of SARS-CoV Urbani / Binding of serum 6 to linear peptides of protein X4 of SARS-CoV Urbani / Binding of serum 37 to linear peptides of protein X4 of SARS-CoV Urbani / Binding of serum 37 to looped/cyclic peptides of protein X4 of SARS-CoV Urbani / Binding of serum 6 to linear peptides of protein X5 of SARS-CoV Urbani / Binding of serum 37 to linear peptides of protein X5 of SARS-CoV Urbani / Binding of serum 37 to looped/cyclic peptides of protein X5 of SARS-CoV Urbani / Binding of serum 6 to linear peptides of protein N of SARS-CoV Urbani / Binding of serum 37 to linear peptides of protein N of SARS-CoV Urbani / Binding of serum 6 to linear peptide (PEPSCAN-ELISA) / Binding of serum 1a to looped/cyclic peptides of protein N of SARS-CoV Urbani / Binding of serum 1b to looped/cyclic peptides of protein N of SARS-CoV Urbani / Binding of serum 2 to looped/cyclic peptides of protein N of SARS-CoV Urbani / Binding of serum 6 to looped/cyclic peptides of protein N of SARS-CoV Urbani / Binding of serum 37 to looped/cyclic peptides of protein N of SARS-CoV Urbani / Binding of serum 62 to looped/cyclic peptides of protein N of SARS-CoV Urbani / Binding of serum London to looped/cyclic peptides of protein N of SARS-CoV Urbani / Binding of serum SARS-green to looped/cyclic peptides of protein N of SARS-CoV Urbani: unit not given here
[2] = test system: control sera (pooled serum of ten healthy LUMC hospital workers; commercial negative donor pooled serum from the Dutch bloodbank); type: binding, human; parameters: Binding of Control serum LUMC to linear peptides / Binding of Control serum Blood-bank to linear peptides / Binding of Control serum LUMC to looped peptides / Binding of Control Serum Blood-Bank to Looped peptides / Binding of Control serum LUMC to linear peptides of the protein M of SARS-CoV Urbani / Binding of Control serum Blood-bank to linear peptides of the protein M of SARS-CoV Urbani / Binding of Control serum LUMC to looped peptides of the protein M of SARS-CoV Urbani / Binding of Control Serum Blood-Bank to Looped peptides of the protein M of SARS-CoV Urbani: unit not given here
[3] = test system: rabbit serum obtained by immunizing a rabbit with the SARS-CoV strain Frankfurt 1; type: binding; parameters: Binding of a rabbit serum to linear peptides / Binding of a rabbit serum to looped peptides / Rabbit serum linear peptides / Rabbit serum looped peptides / Binding of a rabbit serum to linear peptides of protein N of SARS-CoV Urbani (Rabbit serum linear peptides) / Binding of a rabbit serum to looped/cyclic peptides of protein N of SARS-CoV Urbani (Rabbit serum looped peptides): unit not given here

VIGVAFLAVFQSATK
Binding of serum 1a to linear peptides of protein X1 of SARS-CoV Urbani [1]: 0.5 | Binding of serum 1a to looped/cyclic peptide (PEPSCAN-ELISA) [1]: 0.4 | Binding of serum 1b to linear peptides of protein X1 of SARS-CoV Urbani [1]: 0.4 | Binding of serum 1b to looped/cyclic peptide (PEPSCAN-ELISA) [1]: 0.3 | Binding of serum 2 to linear peptides of protein X1 of SARS-CoV Urbani [1]: 0.4 | Binding of serum 2 to looped/cyclic peptide (PEPSCAN-ELISA) [1]: 0.3 | Binding of serum 6 to linear peptides of protein X1 of SARS-CoV Urbani [1]: 0.4 | Binding of serum 6 to looped/cyclic peptide (PEPSCAN-ELISA) [1]: 0.6 | Binding of serum 37 to linear peptides of protein X1 of SARS-CoV Urbani [1]: 0.5 | Binding of serum 37 to looped/cyclic peptide (PEPSCAN-ELISA) [1]: 0.4 | Binding of serum 62 to linear peptides of protein X1 of SARS-CoV Urbani [1]: 0.4 | Binding of serum 62 to looped/cyclic peptide (PEPSCAN-ELISA) [1]: 0.4 | Binding of serum London to linear peptides of protein X1 of SARS-CoV Urbani [1]: 0.2 | Binding of serum London to looped/cyclic peptide (PEPSCAN-ELISA) [1]: 0.7 | Binding of serum SARS-green to linear peptides of protein X1 of SARS-CoV Urbani [1]: 0.1 | Binding of serum SARS-green to looped/cyclic peptide (PEPSCAN-ELISA) [1]: 0.2 | Binding of serum SARS-yellow to linear peptides of protein X1 of SARS-CoV Urbani [1]: 0.2 | Binding of serum SARS-yellow to looped/cyclic peptide (PEPSCAN-ELISA) [1]: 0.5 | Binding of Control Serum Blood-Bank to Looped peptides [2]: 0.5 | Binding of Control serum Blood-bank to linear peptides [2]: 0.5 | Binding of Control serum LUMC to linear peptides [2]: 0.5 | Binding of Control serum LUMC to looped peptides [2]: 0.5 | Binding of a rabbit serum to linear peptides [3]: 0.1 | Binding of a rabbit serum to looped peptides [3]: 0.6

NLDVIISSIVRQLFK
Binding of serum 1a to linear peptides of protein X3 of SARS-CoV Urbani [1]: 0.7 | Binding of serum 1a to looped/cyclic peptides of protein X3 of SARS-CoV Urbani [1]: 0.5 | Binding of serum 1b to linear peptides of protein X3 of SARS-CoV Urbani [1]: 0.2 | Binding of serum 1b to looped/cyclic peptides of protein X3 of SARS-CoV Urbani [1]: 0.4 | Binding of serum 2 to linear peptides of protein X3 of SARS-CoV Urbani [1]: 0.4 | Binding of serum 2 to looped/cyclic peptides of protein X3 of SARS-CoV Urbani [1]: 0.5 | Binding of serum 6 to linear peptides of protein X3 of SARS-CoV Urbani [1]: 0.6 | Binding of serum 6 to looped/cyclic peptides of protein X3 of SARS-CoV Urbani [1]: 0.8 | Binding of serum 37 to linear peptides of protein X3 of SARS-CoV Urbani [1]: 0.6 | Binding of serum 37 to looped/cyclic peptides of protein X3 of SARS-CoV Urbani [1]: 0.5 | Binding of serum 62 to linear peptides of protein X3 of SARS-CoV Urbani [1]: 0.6 | Binding of serum 62 to looped/cyclic peptides of protein X3 of SARS-CoV Urbani [1]: 0.4 | Binding of serum London to linear peptides of protein X3 of SARS-CoV Urbani [1]: 0.7 | Binding of serum London to looped/cyclic peptides of protein X3 of SARS-CoV Urbani [1]: 1.8 | Binding of serum SARS-green to linear peptides of protein X3 of SARS-CoV Urbani [1]: 0.3 | Binding of serum SARS-green to looped/cyclic peptides of protein X3 of SARS-CoV Urbani [1]: 0.2 | Binding of serum SARS-yellow to linear peptides of protein X3 of SARS-CoV Urbani [1]: 0.3 | Binding of serum SARS-yellow to looped/cyclic peptides of protein X3 of SARS-CoV Urbani [1]: 0.6 | Binding of Control Serum Blood-Bank to Looped peptides of the protein X3 of SARS-CoV Urbani [2]: 0.8 | Binding of Control serum Blood-bank to linear peptides of the protein X3 of SARS-CoV Urbani [2]: 0.8 | Binding of Control serum LUMC to linear peptides of the protein X3 of SARS-CoV Urbani [2]: 0.6 | Binding of Control serum LUMC to looped peptides of the protein X3 of SARS-CoV Urbani [2]: 0.8 | Rabbit serum linear peptides [3]: 0.3 | Rabbit serum looped peptides [3]: 0.2
